We go through 2 molecules from publication PMC8694192, “Synthesis and biological evaluation of new derivatives of thieno-thiazole and dihydrothiazolo-thiazole scaffolds integrated with a pyrazoline nucleus as anticancer and multi-targeting kinase inhibitors” (RSC Advances, 2021).

As a reminder, the zone of inhibition is the extent of the growth-free halo in a diffusion test. What is called IC50 is the concentration that inhibits the measured activity by half. The term melting point denotes the temperature of the solid-liquid transition. One may read the MIC as the lowest concentration that inhibits growth of the organism.

In series [1] the test system is S. aureus 25923. The series is described as follows: Agar well diffusion, inhibition zone. Type of series: cell-based. To be noted: Staphylococcus aureus, 25923, read-out: Mean diameter of inhibition zone (mean ± SEM) S. aureus 25923.
For another series, the system named is MCF-7 cells. The series is described as follows: In vitro cytotoxicity, MTT assay, MCF-7. Particulars: Homo sapiens, MCF7, read-out: IC50 MCF-7.
The subject of series [2] is E. faecalis. The series is described as follows: Agar well diffusion, inhibition zone. Type of series: cell-based. Particulars: Enterococcus faecalis, read-out: Mean diameter of inhibition zone (mean ± SEM) E. faecalis.
The subject of series [3] is S. typhi ATCC 14028. The series is described as follows: Agar well diffusion, inhibition zone. Type of series: cell-based. Particulars: Salmonella enterica, read-out: Mean diameter of inhibition zone (mean ± SEM) S. typhi ATCC 14028.
In series [4] the test system is C. albicans ATCC 10231. The series is described as follows: Agar well diffusion, inhibition zone. Particulars: Candida albicans, ATCC10231, read-out: Mean diameter of inhibition zone (mean ± SEM) C. albicans ATCC 10231. Type of series: cell-based. (In general: A growth-free zone around the sample is the usual read-out of agar diffusion tests.)
For series [5], the system named is E. coli RCMB 010052. The series is described as follows: Agar well diffusion, inhibition zone. Type of series: cell-based. To be noted: Escherichia coli, RCMB010052, read-out: Mean diameter of inhibition zone (mean ± SEM) E. coli RCMB 010052.
Series [6] has as its system S. pneumoniae 010010. The series is described as follows: Agar well diffusion, inhibition zone. Type of series: cell-based. To be noted: Streptococcus pneumoniae, 010010, read-out: Mean diameter of inhibition zone (mean ± SEM) S. pneumoniae 010010.
In series [7] the test system is S. pneumoniae 010010. The series is described as follows: MIC, two-fold serial dilution. Particulars: Streptococcus pneumoniae, 010010, read-out: MIC S. pneumoniae 010010.
Series [8] relates to S. typhi ATCC 14028. The series is described as follows: MIC, two-fold serial dilution. Type of series: cell-based. To be noted: Salmonella enterica, read-out: MIC S. typhi ATCC 14028.
Series [9] concerns E. faecalis. The series is described as follows: MIC, two-fold serial dilution. Particulars: Enterococcus faecalis, read-out: MIC E. faecalis.
The subject of a further series is HepG-2 cells. The series is described as follows: In vitro cytotoxicity, MTT assay, HepG-2. Particulars: Homo sapiens, HepG2, read-out: IC50 HepG-2.
Series [10] concerns C. albicans ATCC 10231. The series is described as follows: MIC, two-fold serial dilution. To be noted: Candida albicans, ATCC10231, read-out: MIC C. albicans ATCC 10231.
The subject of series [11] is A. fumigatus RCMB 02568. The series is described as follows: Agar well diffusion, inhibition zone. Type of series: cell-based. To be noted: Aspergillus fumigatus, RCMB02568, read-out: Mean diameter of inhibition zone (mean ± SEM) A. fumigatus RCMB 02568.
Series [12] has as its system P. aeruginosa. The series is described as follows: Agar well diffusion, inhibition zone. Type of series: cell-based. To be noted: Pseudomonas aeruginosa, read-out: Mean diameter of inhibition zone (mean ± SEM) P. aeruginosa.
Series [13] relates to A. fumigatus RCMB 02568. The series is described as follows: MIC, two-fold serial dilution. Particulars: Aspergillus fumigatus, RCMB02568, read-out: MIC A. fumigatus RCMB 02568.
The subject of series [14] is E. coli RCMB 010052. The series is described as follows: MIC, two-fold serial dilution. To be noted: Escherichia coli, RCMB010052, read-out: MIC E. coli RCMB 010052.
Series [15] relates to S. aureus 25923. The series is described as follows: MIC, two-fold serial dilution. To be noted: Staphylococcus aureus, 25923, read-out: MIC S. aureus 25923.
Series [16] relates to P. aeruginosa. The series is described as follows: MIC, two-fold serial dilution. Particulars: Pseudomonas aeruginosa, read-out: MIC P. aeruginosa.

Values after ≈ are worked out from the molar mass of the structure shown.

`Cc1c(Nc2nc3c(C(N)=S)c(N)sc3s2)c(=O)n(-c2ccccc2)n1C` [Compound 3d, 5-Amino-2-((1,5-dimethyl-3-oxo-2-phenyl-2,3-dihydro-1H-pyrazol-4-yl)amino) thieno[3,2-d]thiazole-6-carbothioamide] returned a melting point of 297 to 299 °C. The zone of inhibition at 500 µg/mL with S. aureus 25923 [1] was 13 ± 0.95 mm. Also, the IC50 with MCF-7 cells was 18.19 ± 0.01 µM. Also, the zone of inhibition at 500 µg/mL with E. faecalis [2] came to 22 ± 0.11 mm. Further, the zone of inhibition at 500 µg/mL with S. typhi ATCC 14028 [3] was determined as 18 ± 0.13 mm. Besides, the zone of inhibition at 500 µg/mL in the series on C. albicans ATCC 10231 [4] worked out at 16 ± 0.28 mm. For the same molecule, the zone of inhibition at 500 µg/mL in the series on E. coli RCMB 010052 [5] amounted to 22 ± 0.14 mm. In the series with S. pneumoniae 010010 [6], the zone of inhibition at 500 µg/mL worked out at 28 ± 0.45 mm. Besides, the MIC with S. pneumoniae 010010 [7] is 16.2 µM (≈ 6.74 µg/mL). For the same molecule, the MIC with S. typhi ATCC 14028 [8] turned out to be 121 µM (≈ 50.6 µg/mL). Also, the MIC in the series with E. faecalis [9] was found to be 75.5 µM (≈ 31.4 µg/mL). In addition, in the series with HepG-2 cells, the IC50 was 16.91 ± 0.01 µM. The MIC with C. albicans ATCC 10231 [10] came to 132 µM (≈ 55.1 µg/mL). Besides, in the series on A. fumigatus RCMB 02568 [11], the zone of inhibition at 500 µg/mL came to 19 ± 0.45 mm. Moreover, the zone of inhibition at 500 µg/mL with P. aeruginosa [12] was 20 ± 0.19 mm. In the series on A. fumigatus RCMB 02568 [13], the minimal inhibitory concentration (MIC) came out at 118 µM (≈ 49.1 µg/mL). Further, in the series on E. coli RCMB 010052 [14], the MIC was 71.8 µM (≈ 29.9 µg/mL). For the same molecule, in the series on S. aureus 25923 [15], the MIC was found to be 181 µM (≈ 75.4 µg/mL). The MIC with P. aeruginosa [16] worked out at 67 µM (≈ 27.9 µg/mL).
The molecule `Cc1c(Nc2nc3c(s2)sc(=S)n3C)c(=O)n(-c2ccccc2)n1C` [Compound 5c, 1,5-Dimethyl-4-((4-methyl-5-thioxo-4,5-dihydrothiazolo[4,5-d]thiazol-2-yl)amino)-2-phenyl-1H-pyrazol-3(2H)-one] came in with a melting point of 189 to 191 °C. Further, the zone of inhibition at 500 µg/mL with S. aureus 25923 [1] is 20 ± 0.08 mm. The IC50 in the series on MCF-7 cells stood at 14.69 ± 0.03 µM. In the series on E. faecalis [2], the zone of inhibition at 500 µg/mL is 24 ± 0.89 mm. The zone of inhibition at 500 µg/mL with S. typhi ATCC 14028 [3] came to 17 ± 0.78 mm. For the same molecule, in the series with C. albicans ATCC 10231 [4], the zone of inhibition at 500 µg/mL turned out to be 19 ± 0.23 mm. The zone of inhibition at 500 µg/mL in the series with E. coli RCMB 010052 [5] was found to be 25 ± 0.1 mm. Also, in the series on S. pneumoniae 010010 [6], the zone of inhibition at 500 µg/mL worked out at 15 ± 0.86 mm. In addition, in the series on S. pneumoniae 010010 [7], the MIC was found to be 178 µM (≈ 69.4 µg/mL). In addition, the minimal inhibitory concentration (MIC) in the series with S. typhi ATCC 14028 [8] is 125 µM (≈ 48.8 µg/mL). The MIC in the series on E. faecalis [9] is 18.9 µM (≈ 7.35 µg/mL). In the series on HepG-2 cells, the IC50 was determined as 11.85 ± 0.03 µM. Moreover, in the series with C. albicans ATCC 10231 [10], the MIC amounted to 79.4 µM (≈ 30.9 µg/mL). Also, the zone of inhibition at 500 µg/mL in the series with A. fumigatus RCMB 02568 [11] was determined as 26 ± 0.17 mm. Moreover, the zone of inhibition at 500 µg/mL with P. aeruginosa [12] is 22 ± 0.48 mm. Further, the minimum inhibitory concentration (MIC) in the series on A. fumigatus RCMB 02568 [13] amounted to 17.8 µM (≈ 6.95 µg/mL). Also, the MIC in the series on E. coli RCMB 010052 [14] is 20.8 µM (≈ 8.08 µg/mL). In addition, the MIC with S. aureus 25923 [15] amounted to 68.8 µM (≈ 26.8 µg/mL). The MIC in the series with P. aeruginosa [16] is 62.2 µM (≈ 24.2 µg/mL).
